Patent publication US12655185B2, “Peptide inhibitors of interleukin-23 and their use to treat inflammatory diseases” (Protagonist Therapeutics, Inc., priority 2016, dated 2026)
Read-outs that look alike come from different tables or passages of the source. Bridge positions count the residues as written; N and C are the ends. Peptide text beside a SMILES is read from it.

Biological target: T1, IL-23 binding to IL23R_huFC (human IL-23R) (Homo sapiens, UniProt P29460+Q9NPF7)
T1 sequence (Q9NPF7 20-189): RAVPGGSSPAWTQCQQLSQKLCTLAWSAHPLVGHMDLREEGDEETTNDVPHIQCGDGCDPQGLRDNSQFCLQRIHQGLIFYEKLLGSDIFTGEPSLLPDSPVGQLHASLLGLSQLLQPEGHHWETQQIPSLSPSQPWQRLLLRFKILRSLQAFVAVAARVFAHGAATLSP
T1 sequence (P29460 23-328): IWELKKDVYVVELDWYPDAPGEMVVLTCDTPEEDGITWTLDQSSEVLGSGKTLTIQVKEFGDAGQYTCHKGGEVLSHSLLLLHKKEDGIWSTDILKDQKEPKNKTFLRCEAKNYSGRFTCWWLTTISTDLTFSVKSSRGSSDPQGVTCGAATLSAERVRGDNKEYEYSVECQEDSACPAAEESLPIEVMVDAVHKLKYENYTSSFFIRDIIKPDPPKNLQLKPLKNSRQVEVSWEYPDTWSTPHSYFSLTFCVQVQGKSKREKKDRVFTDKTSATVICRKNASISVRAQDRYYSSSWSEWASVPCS
Assay: IL23-IL23R Competitive Binding ELISA
Experimental: Immulon® 4HBX plate was coated with 200 ng/well of IL23R_huFC and incubated overnight at 4° C. […] Serial dilutions of test peptides and IL-23 at a final concentration of 0.9 nM diluted in PBS were added to each well and incubated for 2 hours at room temperature. After the wells were washed, bound IL-23 was detected by incubation with 50 ng/well of goat anti-p40 polyclonal antibodies (R&D Systems #AF309) diluted in PBS for 1 hour at room temperature. The wells were again washed four times with PBST. […] The plate was finally washed as above. Signals were visualized with TMB One Component HRP Membrane Substrate, quenched with 2 M sulfuric acid and read spectrophotometrically at 450 nm.

[1] = inhibition of IL-23/IL-23R binding, IL-23 0.9 nM, class symbols, read-out: IC50 IL23R_huFC

SMILES	IC50 [µM]	IC50 [1] [µM]
CC[C@H](C)[C@@H]1NC(=O)[C@H](CCCCN)NC(=O)[C@H](C)NC(=O)[C@H](CC(N)=O)NC(=O)[C@H](CCCNC(=N)N)NC(=O)[C@H](CCC(N)=O)NC(=O)[C@H](CCC(=O)O)NC(=O)[C@H](CCC(=O)O)NC(=O)[C@H](CC(N)=O)NC(=O)[C@H](CC(C)C)NC(=O)[C@H](CC(N)=O)NC(=O)[C@@H]2CCCN2C(=O)[C@H](CC(=O)O)NC(=O)[C@H](C)NC(=O)[C@H](C)NC(=O)[C@H](C)NC(=O)[C@H](CO)NC(=O)[C@H](Cc2ccc(O)cc2)NC(=O)[C@H](Cc2ccccc2)NC(=O)[C@H](C)NC(=O)[C@H](CC(C)C)NC(=O)[C@H](CCC(N)=O)NC(=O)[C@@H](NC(=O)[C@H](Cc2ccccc2)NC(=O)[C@H](CCSC)NC(=O)[C@H](CC(N)=O)NC(=O)[C@H](Cc2ccccc2)NC(C)=O)CSSC[C@@H](C(N)=O)NC(=O)[C@H](CC(C)C)NC(=O)[C@H](CC(=O)O)NC(=O)[C@H](CCCNC(=N)N)NC(=O)[C@H](Cc2ccccc2)NC(=O)[C@H](CO)NC(=O)[C@H](CCCCN)NC1=O [Peptide 9] (Ac-FNMFCQLAFYSAAADPNLNEEQRNAKIKSFRDLC-NH2; disulfide 5-34)	10 to 100	–
CC[C@H](C)[C@@H]1NC(=O)[C@H](CCCCN)NC(=O)[C@H](C)NC(=O)[C@H](Cc2c[nH]c3ccccc23)NC(=O)[C@H](C)NC(=O)[C@H](CCC(N)=O)NC(=O)[C@H](CCC(=O)O)NC(=O)[C@H](CCC(N)=O)NC(=O)[C@H](CC(N)=O)NC(=O)[C@H](CC(C)C)NC(=O)[C@H](CC(N)=O)NC(=O)[C@@H]2CCCN2C(=O)[C@H](CC(=O)O)NC(=O)[C@H](C(C)C)NC(=O)CNC(=O)[C@H](C)NC(=O)[C@H](CCC(=O)O)NC(=O)[C@H](CO)NC(=O)[C@H](CCSC)NC(=O)[C@H](CCCNC(=N)N)NC(=O)[C@H](CCCNC(=N)N)NC(=O)[C@H](CC(C)C)NC(=O)[C@@H](NC(=O)[C@H](CCC(N)=O)NC(=O)[C@H](CCSC)NC(=O)[C@H](CC(N)=O)NC(=O)[C@H](Cc2ccccc2)NC(C)=O)CSSC[C@@H](C(N)=O)NC(=O)[C@H](CC(=O)O)NC(=O)[C@H](CC(=O)O)NC(=O)[C@H](CCSC)NC(=O)[C@H]([C@@H](C)CC)NC(=O)[C@H](CO)NC(=O)[C@H](CCCCN)NC1=O [Peptide 19] (Ac-FNMQCLRRMSEAGVDPNLNQEQAWAKIKSIMDDC-NH2; disulfide 5-34)	–	1 to 10
CC[C@H](C)[C@@H]1NC(=O)[C@H](CCCNC(=N)N)NC(=O)[C@H](C)NC(=O)[C@H](CC(N)=O)NC(=O)[C@H](CCCNC(=N)N)NC(=O)[C@H](CC(=O)O)NC(=O)[C@H](CCC(=O)O)NC(=O)[C@H](CCC(=O)O)NC(=O)[C@H](CC(N)=O)NC(=O)[C@H](CC(C)C)NC(=O)[C@H](CC(N)=O)NC(=O)[C@@H]2CCCN2C(=O)[C@H](CC(N)=O)NC(=O)[C@H](C)NC(=O)[C@H](C)NC(=O)[C@H](C)NC(=O)[C@H](Cc2c[nH]c3ccccc23)NC(=O)[C@H](Cc2ccc(O)cc2)NC(=O)[C@H](Cc2ccccc2)NC(=O)[C@H](CC(C)C)NC(=O)[C@H](CCCNC(=N)N)NC(=O)[C@H](CCC(N)=O)NC(=O)[C@@H](NC(=O)[C@H](Cc2ccccc2)NC(=O)[C@H](CCSC)NC(=O)[C@H](CC(N)=O)NC(=O)[C@H](Cc2ccccc2)NC(C)=O)CSSC[C@@H](C(N)=O)NC(=O)CNC(=O)[C@H](CC(=O)O)NC(=O)[C@H](CCCNC(=N)N)NC(=O)[C@H](Cc2ccccc2)NC(=O)[C@H](CO)NC(=O)[C@H](CC(C)C)NC1=O [Peptide 3] (Ac-FNMFCQRLFYWAAANPNLNEEDRNARILSFRDGC-NH2; disulfide 5-34)	–	10 to 100
CC[C@H](C)[C@@H]1NC(=O)[C@H](CO)NC(=O)[C@H](CCCCN)NC(=O)[C@H](C)NC(=O)[C@H](CCCCN)NC(=O)[C@H](C)NC(=O)[C@H](Cc2c[nH]c3ccccc23)NC(=O)[C@H](CCCNC(=N)N)NC(=O)[C@H](CCC(N)=O)NC(=O)[C@H](CCC(=O)O)NC(=O)[C@H](CCC(N)=O)NC(=O)[C@H](CC(N)=O)NC(=O)[C@H](CC(C)C)NC(=O)[C@H](CC(N)=O)NC(=O)[C@@H]2CCCN2C(=O)[C@H](CC(=O)O)NC(=O)[C@H](C(C)C)NC(=O)CNC(=O)[C@H](C)NC(=O)[C@H](CCC(=O)O)NC(=O)[C@H](CO)NC(=O)[C@H](CCSC)NC(=O)[C@H](CCCNC(=N)N)NC(=O)[C@H](CCCNC(=N)N)NC(=O)[C@H](CC(C)C)NC(=O)[C@@H](NC(=O)[C@H](CCC(N)=O)NC(=O)[C@H](CCSC)NC(=O)[C@H](CC(N)=O)NC(=O)[C@H](Cc2ccccc2)NC(C)=O)CSSC[C@@H](C(N)=O)NC(=O)[C@H](CC(=O)O)NC(=O)[C@H](CC(=O)O)NC(=O)[C@H](CCSC)NC1=O [Peptide 21] (Ac-FNMQCLRRMSEAGVDPNLNQEQRWAKAKSIMDDC-NH2; disulfide 5-34)	–	1 to 10
CC[C@H](C)[C@@H]1NC(=O)[C@H](CCCCN)NC(=O)[C@H](C)NC(=O)[C@H](Cc2c[nH]c3ccccc23)NC(=O)[C@H](CCCNC(=N)N)NC(=O)[C@H](CCC(N)=O)NC(=O)[C@H](CCC(=O)O)NC(=O)[C@H](CCC(N)=O)NC(=O)[C@H](CC(N)=O)NC(=O)[C@H](CC(C)C)NC(=O)[C@H](CC(N)=O)NC(=O)[C@H](C)NC(=O)[C@H](CC(=O)O)NC(=O)[C@H](C(C)C)NC(=O)CNC(=O)[C@H](C)NC(=O)[C@H](CCC(=O)O)NC(=O)[C@H](CO)NC(=O)[C@H](CCSC)NC(=O)[C@H](CCCNC(=N)N)NC(=O)[C@H](CCCNC(=N)N)NC(=O)[C@H](CC(C)C)NC(=O)[C@@H](NC(=O)[C@H](CCC(N)=O)NC(=O)[C@H](CCSC)NC(=O)[C@H](CC(N)=O)NC(=O)[C@H](Cc2ccccc2)NC(C)=O)CSSC[C@@H](C(N)=O)NC(=O)[C@H](CC(=O)O)NC(=O)[C@H](CC(=O)O)NC(=O)[C@H](CCSC)NC(=O)[C@H]([C@@H](C)CC)NC(=O)[C@H](CO)NC(=O)[C@H](CCCCN)NC1=O [Peptide 16] (Ac-FNMQCLRRMSEAGVDANLNQEQRWAKIKSIMDDC-NH2; disulfide 5-34)	–	1 to 10
